Results taken from patent publication US20070155764A1, “NOVEL SUBSTITUTED PYRIMIDINYLOXY UREAS USEFUL AS INHIBITORS OF PROTEIN KINASES” (KALYPSYS, INC., priority 2005, published 2007).

Key:
Assay type in all cases: biochemical
[1] = molecular target: T1, human B-Raf protein kinase (Homo sapiens, UniProt P15056); assay: In vitro B-Raf/Mek1 composite kinase assay; details: recombinant GST-tagged human B-Raf (Δ1-415) with inactive Mek1, 2 μM ATP
T1 construct: GST (N); purchased Upstate Inc. 14-530 (B-Raf); 14-420 (Mek1)
T1 sequence (P15056 416-766): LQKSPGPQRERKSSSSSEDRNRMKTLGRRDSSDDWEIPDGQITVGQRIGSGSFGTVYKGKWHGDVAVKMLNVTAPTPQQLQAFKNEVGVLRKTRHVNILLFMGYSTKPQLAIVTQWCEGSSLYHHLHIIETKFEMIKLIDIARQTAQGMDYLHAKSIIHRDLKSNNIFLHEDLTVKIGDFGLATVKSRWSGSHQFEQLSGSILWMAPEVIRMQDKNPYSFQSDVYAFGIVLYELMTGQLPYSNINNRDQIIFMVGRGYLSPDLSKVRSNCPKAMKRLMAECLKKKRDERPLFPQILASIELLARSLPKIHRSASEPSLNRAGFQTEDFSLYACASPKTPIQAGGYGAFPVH
Protocol: In Vitro B-Raf/Mek1 Composite Kinase Assay
2.5 μl of B-Raf kinase buffer (20 mM MOPS [pH 7.2], 25 mM sodium glycerophosphate, 2 mM EGTA [pH 8.0], 1 mM sodium orthovanadate, 1 mM dithiothreitol, 10 mM MgCl2, 0.03% Brij-35, 0.3 mg/ml bovine serum albumin) containing 1 ng of recombinant, N-terminal GST-tagged human B-Raf protein kinase (Δ1-415, Upstate Inc., cat. #14-530) is dispensed to wells of a 1536 multi-well white solid plate. 60 nl of 100× concentration of test compound in DMSO is dispensed to the well by passive pin transfer and incubated for 15 minutes at room temperature (approx. 22° C.). […] The assay plates are sealed and maintained in a humidified environment. After 2 hours, 2.5 μl of PKLight protein kinase assay reagent (Cambrex, cat. #LT07-501) is dispensed. After an additional 5 minute incubation at room temperature, luminescence activity is measured on a Molecular Devices Analyst multi-mode plate reader or other suitable plate reader. Kinase inhibition results in less ATP depletion, and therefore increased luminescence signal. Negative control activity is measured with DMSO lacking any test compound. The positive control is [N-(3-trifluoromethyl-4-chlorophenyl)-N′-(4-(2-methylcarbamoyl-pyridin-4-yl)oxyphenyl)urea], aka Bay 43-9006. Efficacy is measured as a percentage of positive control activity.

VEGFR2 kinase = molecular target: T2, VEGFR2 kinase (Homo sapiens, UniProt P35968); assay: In vitro VEGFR2 kinase assay; details: ADP Quest assay, poly Glu:Tyr substrate, 60 μM ATP
T2 construct: purchased Invitrogen Inc PV3660
T2 sequence (P35968 20-1356): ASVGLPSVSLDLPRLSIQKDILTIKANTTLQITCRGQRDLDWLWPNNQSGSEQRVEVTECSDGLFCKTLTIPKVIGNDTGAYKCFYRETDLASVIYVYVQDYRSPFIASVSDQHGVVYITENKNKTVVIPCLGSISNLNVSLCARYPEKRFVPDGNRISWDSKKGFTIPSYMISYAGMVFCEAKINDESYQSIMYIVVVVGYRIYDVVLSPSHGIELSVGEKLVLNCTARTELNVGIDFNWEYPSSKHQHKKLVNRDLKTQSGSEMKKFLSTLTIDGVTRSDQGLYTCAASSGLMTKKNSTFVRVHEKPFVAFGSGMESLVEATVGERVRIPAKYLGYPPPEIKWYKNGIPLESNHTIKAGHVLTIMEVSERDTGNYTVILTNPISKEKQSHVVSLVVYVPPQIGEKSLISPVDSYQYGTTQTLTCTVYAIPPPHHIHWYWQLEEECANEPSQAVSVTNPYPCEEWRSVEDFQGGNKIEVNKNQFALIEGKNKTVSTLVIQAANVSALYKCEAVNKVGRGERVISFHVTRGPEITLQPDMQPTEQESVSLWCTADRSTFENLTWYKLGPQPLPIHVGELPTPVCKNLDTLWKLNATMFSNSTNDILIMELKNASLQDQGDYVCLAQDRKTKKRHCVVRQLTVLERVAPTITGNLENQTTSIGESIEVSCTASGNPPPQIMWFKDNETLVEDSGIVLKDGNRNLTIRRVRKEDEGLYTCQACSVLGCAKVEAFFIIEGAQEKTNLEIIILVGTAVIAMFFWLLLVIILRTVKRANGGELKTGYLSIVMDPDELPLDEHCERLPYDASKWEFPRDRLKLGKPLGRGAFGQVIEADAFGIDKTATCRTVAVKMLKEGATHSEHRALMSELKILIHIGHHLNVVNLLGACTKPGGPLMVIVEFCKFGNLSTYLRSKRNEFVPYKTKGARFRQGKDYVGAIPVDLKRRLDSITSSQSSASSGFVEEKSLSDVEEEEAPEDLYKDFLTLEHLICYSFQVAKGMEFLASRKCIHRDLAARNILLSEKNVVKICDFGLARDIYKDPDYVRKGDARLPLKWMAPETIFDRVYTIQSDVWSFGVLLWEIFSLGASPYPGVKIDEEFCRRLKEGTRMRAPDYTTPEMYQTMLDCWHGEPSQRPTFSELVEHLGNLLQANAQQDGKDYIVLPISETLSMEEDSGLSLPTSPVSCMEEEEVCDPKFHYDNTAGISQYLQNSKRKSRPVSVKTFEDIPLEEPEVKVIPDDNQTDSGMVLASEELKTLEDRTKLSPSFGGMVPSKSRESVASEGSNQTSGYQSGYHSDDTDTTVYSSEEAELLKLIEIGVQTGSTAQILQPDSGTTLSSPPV
Protocol: (§1) In vitro vegfr2 and PDGFRβ Kinase Assays
(§2) 2.5 μl of ADP Quest assay buffer (DiscoverX Inc., cat. #90-0071) containing 20 ng VEGFR2 kinase (Invitrogen Inc, cat. #PV3660) or 25 ng PDGFRβ kinase (Invitrogen Inc., cat. #P3082) is dispensed to wells of a 1536 multi-well, black solid plate. 60 nl of 100× concentration of test compound in DMSO is dispensed to the well by passive pin transfer and incubated for 10 minutes at room temperature (approx. 22° C.). 2.5 μl of ADP Quest assay buffer containing 0.25 μg of poly Glu:Tyr (4:1) substrate peptide (Upstate Inc., cat. #12-440) and 60 μM ATP is then dispensed and the kinase reaction allowed to incubate at 30° C. for 2 hours. The assay plates are sealed and maintained in a humidified environment. After the 2 hour incubation, 2 μl of ADP Quest assay reagent A, followed by 2 μl of assay reagent B, is added. After an additional 30 minute incubation at room temperature, fluorescence intensity is measured on a Molecular Devices Aquest multi-mode plate reader or other suitable plate reader (fluorescence excitation filter: 530/25 [Peak (nm)/FWHM passband (nm)]; dichroic beamsplitter: 561 nm longpass; fluorescence emission filter: 580/10 [Peak (nm)/FWHM passband (nm)]. The assay measures the conversion of a non-fluoresecent molecule to fluorescent resorutin, which correlates with kinase activity. Negative control activity is measured with DMSO lacking any test compound. The positive control is [N-(3-trifluoromethyl-4-chlorophenyl)-N′-(4-(2-methylcarbamoyl-pyridin-4-yl)oxyphenyl)urea], aka Bay 43-9006. Efficacy is measured as a percentage of positive control activity.

PDGFRβ kinase = molecular target: T3, PDGFRβ kinase (Homo sapiens, UniProt P09619); assay: In vitro PDGFRβ kinase assay; details: ADP Quest assay, poly Glu:Tyr substrate, 60 μM ATP
T3 construct: purchased Invitrogen Inc. P3082
T3 sequence (P09619 33-1106): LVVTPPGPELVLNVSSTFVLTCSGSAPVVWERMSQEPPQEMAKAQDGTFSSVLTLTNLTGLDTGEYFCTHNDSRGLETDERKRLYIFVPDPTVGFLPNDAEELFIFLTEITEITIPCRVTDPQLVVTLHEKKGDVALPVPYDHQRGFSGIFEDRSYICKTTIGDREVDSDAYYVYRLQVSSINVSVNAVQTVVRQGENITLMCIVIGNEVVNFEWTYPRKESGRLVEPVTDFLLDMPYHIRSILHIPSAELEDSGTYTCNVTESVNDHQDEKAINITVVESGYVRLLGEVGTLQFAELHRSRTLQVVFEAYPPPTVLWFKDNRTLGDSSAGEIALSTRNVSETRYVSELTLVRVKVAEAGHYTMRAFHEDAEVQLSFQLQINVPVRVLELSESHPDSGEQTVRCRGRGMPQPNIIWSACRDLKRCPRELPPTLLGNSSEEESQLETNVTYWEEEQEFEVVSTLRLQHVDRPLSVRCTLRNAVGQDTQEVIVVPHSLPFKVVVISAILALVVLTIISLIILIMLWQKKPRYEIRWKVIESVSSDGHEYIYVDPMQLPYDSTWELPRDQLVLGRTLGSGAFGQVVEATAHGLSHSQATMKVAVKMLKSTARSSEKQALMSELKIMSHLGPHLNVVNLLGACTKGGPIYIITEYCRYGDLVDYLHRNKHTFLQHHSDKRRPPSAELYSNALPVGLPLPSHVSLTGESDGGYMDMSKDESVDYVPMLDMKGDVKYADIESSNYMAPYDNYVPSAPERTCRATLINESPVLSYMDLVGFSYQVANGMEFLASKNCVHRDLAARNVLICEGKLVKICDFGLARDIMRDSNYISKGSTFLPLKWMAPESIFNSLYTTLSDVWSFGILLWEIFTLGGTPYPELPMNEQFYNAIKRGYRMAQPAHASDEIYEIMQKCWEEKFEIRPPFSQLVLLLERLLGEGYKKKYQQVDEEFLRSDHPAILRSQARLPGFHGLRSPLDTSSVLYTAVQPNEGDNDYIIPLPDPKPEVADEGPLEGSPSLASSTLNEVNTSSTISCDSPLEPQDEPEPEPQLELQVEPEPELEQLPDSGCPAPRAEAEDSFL
Protocol: as §1, §2

SMILES	IC50 [1]	IC50 (VEGFR2 kinase)	IC50 (PDGFRβ kinase)
CN(C(=O)Nc1ccc(Cl)c(C(F)(F)F)c1)c1ccc(Oc2ccnc(-c3nnco3)c2)cc1 [Example 110, 1-(4-(2-(1,3,4-Oxadiazol-2-yl)pyridin-4-yloxy)phenyl)-3-(4-chloro-3-(trifluoromethyl)phenyl)-1-methylurea]	≤ 10 µM	≤ 10 µM	≤ 10 µM
O=C(Nc1cccc(Oc2cc(-c3cnn(Cc4ccccc4)c3)ncn2)c1)Nc1ccc(Cl)c(C(F)(F)F)c1 [Example 49, 1-(3-(6-(1-Benzyl-1H-pyrazol-4-yl)pyrimidin-4-yloxy)phenyl)-3-(4-chloro-3-(trifluoromethyl)phenyl)urea]	≤ 10 µM	> 10 µM	> 10 µM
O=C(Nc1cccc(Oc2cc(-c3ncn[nH]3)ncn2)c1)Nc1ccc(Cl)c(C(F)(F)F)c1 [Example 17, 1-(3-(6-(1H-1,2,4-Triazol-5-yl)pyrimidin-4-yloxy)phenyl)-3-(4-chloro-3-(trifluoromethyl)phenyl)urea]	≤ 10 µM	≤ 10 µM	≤ 10 µM
O=C(Nc1ccc(Oc2cc(-c3ncco3)ncn2)cc1)Nc1ccc(Cl)c(C(F)(F)F)c1 [Example 13, 1-(4-Chloro-3-(trifluoromethyl)phenyl)-3-(4-(6-(oxazol-2-yl)pyrimidin-4-yloxy)phenyl)urea]	≤ 10 µM	≤ 10 µM	≤ 10 µM
Cc1nc(C)c(-c2cc(Oc3cccc(NC(=O)Nc4ccc(Cl)c(C(F)(F)F)c4)c3)ncn2)s1 [Example 29, 1-(4-Chloro-3-(trifluoromethyl)phenyl)-3-(3-(6-(2,4-dimethylthiazol-5-yl)pyrimidin-4-yloxy)phenyl)urea]	≤ 10 µM	≤ 10 µM	≤ 10 µM
Cn1nccc1-c1cc(Oc2cccc(NC(=O)Nc3ccc(Cl)c(C(F)(F)F)c3)c2)ncn1 [Example 62, 1-(4-Chloro-3-(trifluoromethyl)phenyl)-3-(3-(6-(1-methyl-1H-pyrazol-5-yl)pyrimidin-4-yloxy)phenyl)urea]	≤ 10 µM	≤ 10 µM	≤ 10 µM
O=C(Nc1cccc(Oc2ccnc(-c3nnco3)n2)c1)Nc1ccc(Cl)c(C(F)(F)F)c1 [Example 12, 1-(3-(2-(1,3,4-oxadiazol-2-yl)pyrimidin-4-yloxy)phenyl)-3-(4-chloro-3-(trifluoromethyl)phenyl)urea]	≤ 10 µM	≤ 10 µM	≤ 10 µM
O=C(Nc1cccc(Oc2cc(-c3cnn(CCN4CCOCC4)c3)ncn2)c1)Nc1ccc(Cl)c(C(F)(F)F)c1 [Example 77, 1-(4-Chloro-3-(trifluoromethyl)phenyl)-3-(3-(6-(1-(2-morpholinoethyl)-1H-pyrazol-4-yl)pyrimidin-4-yloxy)phenyl)urea]	≤ 10 µM	≤ 10 µM	≤ 10 µM
O=C(Nc1cccc(Oc2cc(-c3ncc[nH]3)ncn2)c1)Nc1ccc(Cl)c(C(F)(F)F)c1 [Example 85, 1-(3-(6-(1H-Imidazol-2-yl)pyrimidin-4-yloxy)phenyl)-3-(4-chloro-3-(trifluoromethyl)phenyl)urea]	≤ 10 µM	≤ 10 µM	≤ 10 µM
Cc1cn(-c2cc(NC(=O)Nc3ccc(Oc4cc(-c5cnn(C)c5)ncn4)cc3)cc(C(F)(F)F)c2)cn1 [Example 51, 1-(3-(4-Methyl-1H-imidazol-1-yl)-5-(trifluoromethyl)phenyl)-3-(4-(6-(1-methyl-1H-pyrazol-4-yl)pyrimidin-4-yloxy)phenyl)urea]	≤ 10 µM	≤ 10 µM	≤ 10 µM
O=C(Nc1ccc(Oc2cc(-c3ccc[nH]3)ncn2)cc1)Nc1ccc(Cl)c(C(F)(F)F)c1 [Example 28, 1-(4-(6-(1H-Pyrrol-2-yl)pyrimidin-4-yloxy)phenyl)-3-(4-chloro-3-(trifluoromethyl)phenyl)urea]	≤ 10 µM	≤ 10 µM	≤ 10 µM
CN(C(=O)Nc1ccc(Cl)c(C(F)(F)F)c1)c1ccc(Oc2ccnc(-c3cnn(C)c3)c2)cc1 [Example 119, 3-(4-Chloro-3-trifluoromethyl-phenyl)-1-methyl-1-{4-[2-(1-methyl-1H-pyrazol-4-yl)-pyridin-4-yloxy]-phenyl}-urea]	≤ 10 µM	≤ 10 µM	≤ 10 µM
O=C(Nc1cccc(Oc2cc(-c3ccc[nH]3)ncn2)c1)Nc1ccc(Cl)c(C(F)(F)F)c1 [Example 27, 1-(3-(6-(1H-Pyrrol-2-yl)pyrimidin-4-yloxy)phenyl)-3-(4-chloro-3-(trifluoromethyl)phenyl)urea]	≤ 10 µM	≤ 10 µM	≤ 10 µM
Cn1cc(-c2nccc(Oc3cccc(NC(=O)Nc4ccc(C(F)(F)F)cc4)c3)n2)cn1 [Example 80, 1-(3-(2-(1-Methyl-1H-pyrazol-4-yl)pyrimidin-4-yloxy)phenyl)-3-(4-(trifluoromethyl)phenyl)urea]	≤ 10 µM	≤ 10 µM	≤ 10 µM
CNC(=O)c1cc(NC(=O)N(C)c2ccc(Oc3ccnc(C(=O)NC)c3)cc2)cc(C(F)(F)F)c1 [Example 116, 4-{4-[1-Methyl-3-(3-methylcarbamoyl-5-trifluoromethyl-phenyl)-ureido]-phenoxy}-pyridine-2-carboxylic acid methylamide]	> 10 µM	≤ 10 µM	≤ 10 µM
O=C(Nc1ccc(C(F)(F)F)cc1)Nc1cccc(Oc2cc(-c3nnco3)ncn2)c1 [Example 89, 1-(3-(6-(1,3,4-Oxadiazol-2-yl)pyrimidin-4-yloxy)phenyl)-3-(4-(trifluoromethyl)phenyl)urea]	≤ 10 µM	≤ 10 µM	≤ 10 µM
CC(C)n1cc(-c2cc(Oc3cccc(NC(=O)Nc4ccc(Cl)c(C(F)(F)F)c4)c3)ncn2)cn1 [Example 68, 1-(4-Chloro-3-(trifluoromethyl)phenyl)-3-(3-(6-(1-isopropyl-1H-pyrazol-4-yl)pyrimidin-4-yloxy)phenyl)urea]	≤ 10 µM	> 10 µM	≤ 10 µM
Cn1cc(-c2nccc(Oc3ccc(F)c(NC(=O)Nc4ccc(Cl)c(C(F)(F)F)c4)c3)n2)cn1 [Example 78, 1-(4-Chloro-3-(trifluoromethyl)phenyl)-3-(2-fluoro-5-(2-(1-methyl-1H-pyrazol-4-yl)pyrimidin-4-yloxy)phenyl)urea]	≤ 10 µM	≤ 10 µM	≤ 10 µM
Cn1cc(-c2nccc(Oc3cccc(NC(=O)Nc4ccc(Cl)c(C(F)(F)F)c4)c3)n2)cn1 [Example 71, 1-(4-Chloro-3-(trifluoromethyl)phenyl)-3-(3-(2-(1-methyl-1H-pyrazol-4-yl)pyrimidin-4-yloxy)phenyl)urea]	≤ 10 µM	≤ 10 µM	≤ 10 µM
COCCOc1ccc(NC(=O)Nc2ccc(Oc3cc(-c4cnn(C)c4)ncn3)cc2)cc1C(F)(F)F [Example 52, 1-(4-(2-Methoxyethoxy)-3-(trifluoromethyl)phenyl)-3-(4-(6-(1-methyl-1H-pyrazol-4-yl)pyrimidin-4-yloxy)phenyl)urea]	≤ 10 µM	≤ 10 µM	≤ 10 µM
CN1CCN(Cc2cc(NC(=O)Nc3cccc(Oc4cc(-c5ncco5)ncn4)c3)cc(C(F)(F)F)c2)CC1 [Example 36, 1-(3-((4-Methylpiperazin-1-yl)methyl)-5-(trifluoromethyl)phenyl)-3-(3-(6-(oxazol-2-yl)pyrimidin-4-yloxy)phenyl)urea]	≤ 10 µM	> 10 µM	≤ 10 µM
Cn1cc(-c2nccc(Oc3cc(NC(=O)Nc4ccc(Cl)c(C(F)(F)F)c4)c(F)cc3F)n2)cn1 [Example 67, 1-(4-Chloro-3-(trifluoromethyl)phenyl)-3-(2,4-difluoro-5-(2-(1-methyl-1H-pyrazol-4-yl)pyrimidin-4-yloxy)phenyl)urea]	≤ 10 µM	≤ 10 µM	≤ 10 µM
